The source made the active and inactive calls. No cut-off for these calls is given here.
Assays:
[1] = test system: AML12; test: Effect on lipid accumulation in oleic and palmitic acid induced mouse AML12 cells assessed as decrease in triglyceride level; format: functional, cell-based; conditions: dose 3-30 µM
[2] = molecular target: Na(+)/citrate cotransporter (Homo sapiens) (UniProt Q86YT5); test: Potency index, ratio of citrate Km to test compound Km for binding affinity to SLC13A5 (unknown origin)
Na(+)/citrate cotransporter (Homo sapiens), sequence (Q86YT5 whole entry, looked up): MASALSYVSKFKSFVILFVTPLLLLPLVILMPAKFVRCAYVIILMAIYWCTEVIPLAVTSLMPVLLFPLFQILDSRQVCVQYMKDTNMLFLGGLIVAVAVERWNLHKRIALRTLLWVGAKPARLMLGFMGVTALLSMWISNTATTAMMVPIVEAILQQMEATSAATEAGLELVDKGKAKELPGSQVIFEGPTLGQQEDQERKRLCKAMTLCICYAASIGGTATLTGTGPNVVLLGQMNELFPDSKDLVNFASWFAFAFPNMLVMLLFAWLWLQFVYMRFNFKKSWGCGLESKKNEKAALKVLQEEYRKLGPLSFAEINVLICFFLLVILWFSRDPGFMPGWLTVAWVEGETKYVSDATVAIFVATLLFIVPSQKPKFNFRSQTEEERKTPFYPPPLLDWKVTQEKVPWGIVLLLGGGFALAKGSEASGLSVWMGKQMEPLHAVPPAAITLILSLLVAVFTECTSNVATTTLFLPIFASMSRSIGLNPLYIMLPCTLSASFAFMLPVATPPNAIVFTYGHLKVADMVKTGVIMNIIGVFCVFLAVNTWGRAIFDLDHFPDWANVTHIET

[3] = molecular target: Na(+)/citrate cotransporter (Homo sapiens) (UniProt Q86YT5); test: Competitive inhibition of SLC13A5 (unknown origin) assessed as increase in Km with constant Vmax upto 50 uM
[4] = test system: AML12; test: Effect on SCL13A5 mRNA expression in oleic acid and palmitic acid induced mouse AML12 cells at 3 to 30 uM by RT-qPCR analysis; format: functional, cell-based; conditions: dose 3-30 µM
[5] = test system: AML12; test: Lipid lowering effect on PCN-induced lipid accumulation in mouse AML12 cells assessed as decrease in triglyceride level preincubated with compound for 30 mins followed by PCN addition and measured after 24 hrs; format: functional, cell-based; conditions: dose 3-30 µM, time 24.5 hrs
[6] = test system: AML12; test: Lipid lowering effect on PCN-induced lipid accumulation in mouse AML12 cells assessed as decrease in total cholesterol level preincubated with compound for 30 mins followed by PCN addition and measured after 24 hrs; format: functional, cell-based; conditions: dose 3-30 µM, time 24.5 hrs
[7] = test system: AML12; test: Lipid lowering effect on PCN-induced lipid accumulation in mouse AML12 cells assessed as decrease in FASN mRNA expression level at 3 to 30 uM preincubated with compound for 30 mins followed by PCN addition and measured after 24 hrs by RT-qPCR analysis; format: functional, cell-based; conditions: dose 3-30 µM, time 24.5 hrs
[8] = test system: AML12; test: Lipid lowering effect on PCN-induced lipid accumulation in mouse AML12 cells assessed as decrease in HMGCR mRNA expression level at 3 to 30 uM preincubated with compound for 30 mins followed by PCN addition and measured after 24 hrs by RT-qPCR analysis; format: functional, cell-based; conditions: dose 3-30 µM, time 24.5 hrs
[9] = test system: Hepatocyte; test: Lipid lowering effect on PCN-induced lipid accumulation in mouse Primary hepatocyte assessed as decrease in intracellular triglyceride level; format: functional, cell-based; conditions: dose 3-30 µM
[10] = test system: Hepatocyte; test: Lipid lowering effect on PCN-induced lipid accumulation in mouse Primary hepatocyte assessed as decrease in ACLY mRNA expression level at 3 to 30 uM by RT-qPCR analysis; format: functional, cell-based; conditions: dose 3-30 µM
[11] = test system: Hepatocyte; test: Lipid lowering effect on PCN-induced lipid accumulation in mouse Primary hepatocyte assessed as decrease in ACC1 mRNA expression level at 3 to 30 uM by RT-qPCR analysis; format: functional, cell-based; conditions: dose 3-30 µM
[12] = test system: Hepatocyte; test: Lipid lowering effect on PCN-induced lipid accumulation in mouse Primary hepatocyte assessed as decrease in FASN mRNA expression level at 3 to 30 uM by RT-qPCR analysis; format: functional, cell-based; conditions: dose 3-30 µM
[13] = test system: HepG2; test: Lipid lowering effect on oleic and palmitic acid induced lipid accumulation in human HepG2 cells assessed as decrease in intracellular total cholesterol level; format: functional, cell-based; conditions: dose 3-30 µM
[14] = test system: HepG2; test: Lipid lowering effect on PCN-induced lipid accumulation in human HepG2 cells assessed as decrease in intracellular triglyceride level; format: functional, cell-based; conditions: dose 3-30 µM
[15] = test system: HepG2; test: Lipid lowering effect on PCN-induced lipid accumulation in human HepG2 cells assessed as decrease in ACLY mRNA expression level at 3 to 30 uM by RT-qPCR analysis; format: functional, cell-based; conditions: dose 3-30 µM
[16] = test system: HepG2; test: Lipid lowering effect on PCN-induced lipid accumulation in human HepG2 cells assessed as decrease in FASN mRNA expression level at 3 to 30 uM by RT-qPCR analysis; format: functional, cell-based; conditions: dose 3-30 µM
[17] = test system: HepG2; test: Lipid lowering effect on PCN-induced lipid accumulation in human HepG2 cells assessed as decrease in HMGCR mRNA expression level at 3 to 30 uM by RT-qPCR analysis; format: functional, cell-based; conditions: dose 3-30 µM
[18] = test system: Mus musculus; test: Lipid lowering activity in starvation-induced hyperlipidemic male C57BL/6J mouse model assessed as decrease in triglyceride level in plasma at 10 to 30 mg/kg, ip starved for 48 hrs followed by compound administration and measured after 2 hrs; format: functional, organism-based; conditions: dose 10-30 mg/kg
[19] = test system: Mus musculus; test: Lipid lowering activity in starvation-induced hyperlipidemic male C57BL/6J mouse model assessed as decrease in NEFA level in plasma at 10 to 30 mg/kg, ip starved for 48 hrs followed by compound administration and measured after 2 hrs; format: functional, organism-based; conditions: dose 10-30 mg/kg
[20] = test system: Mus musculus; test: In vivo inhibition of SLC13A5 in starvation-induced hyperlipidemic male C57BL/6J mouse model assessed as increase in plasma citrate level at 30 mg/kg, ip starved for 48 hrs followed by compound administration and measured after 2 hrs; format: functional, organism-based
[21] = test system: Mus musculus; test: Lipid lowering activity in starvation-induced hyperlipidemic male C57BL/6J mouse model assessed as downregulation of ACC1 gene expression level starved for 48 hrs followed by oral administration of compound and measured after 2 hrs by RT-qPCR analysis; format: functional, organism-based; conditions: dose 10-30 mg/kg
[22] = test system: Mus musculus; test: Lipid lowering activity in starvation-induced hyperlipidemic male C57BL/6J mouse model assessed as downregulation of FASN gene expression level starved for 48 hrs followed by oral administration of compound and measured after 2 hrs by RT-qPCR analysis; format: functional, organism-based; conditions: dose 10-30 mg/kg
[23] = test system: Mus musculus; test: Lipid lowering activity in starvation-induced hyperlipidemic male C57BL/6J mouse model assessed as decrease in LDL to HDL cholesterol ratio at 10 to 30 mg/kg, po starved for 48 hrs followed by compound administration and measured after 2 hrs; format: functional, organism-based; conditions: dose 10-30 mg/kg
[24] = test system: Mus musculus; test: Lipid lowering activity in PCN-induced hyperlipidemic male C57BL/6J mouse model assessed as decrease in plasma triglyceride level at 10 to 30 mg/kg, IG preadministered with compound for 15 to 30 mins followed by PCN administration and measured after 7 days; format: functional, organism-based; conditions: dose 10-30 mg/kg, time 15-10110 min
[25] = test system: Mus musculus; test: Lipid lowering activity in PCN-induced hyperlipidemic male C57BL/6J mouse model assessed as decrease in liver triglyceride level at 10 to 30 mg/kg, IG preadministered with compound for 15 to 30 mins followed by PCN administration and measured after 7 days; format: functional, organism-based; conditions: dose 10-30 mg/kg, time 15-10110 min
[26] = test system: Mus musculus; test: Lipid lowering activity in PCN-induced hyperlipidemic male C57BL/6J mouse model assessed as decrease in plasma total cholesterol level at 10 to 30 mg/kg, IG preadministered with compound for 15 to 30 mins followed by PCN administration and measured after 7 days; format: functional, organism-based; conditions: dose 10-30 mg/kg, time 15-10110 min
[27] = test system: Mus musculus; test: Lipid lowering activity in PCN-induced hyperlipidemic male C57BL/6J mouse model assessed as decrease in liver total cholesterol level at 10 to 30 mg/kg, IG preadministered with compound for 15 to 30 mins followed by PCN administration and measured after 7 days; format: functional, organism-based; conditions: dose 10-30 mg/kg, time 15-10110 min
[28] = test system: Mus musculus; test: Lipid lowering activity in PCN-induced hyperlipidemic male C57BL/6J mouse model assessed as decrease in ACC1 mRNA expression level preadministered intragastrically with compound for 15 to 30 mins followed by PCN administration and measured after 7 days by RT-qPCR analysis; format: functional, organism-based; conditions: dose 10-30 mg/kg, route ig, time 15-10110 min
[29] = test system: Mus musculus; test: Effect on SLC13A5 mRNA expression in PCN-induced hyperlipidemic male C57BL/6J mouse model at 10 to 30 mg/kg, IG preadministered with compound for 15 to 30 mins followed by PCN administration and measured after 7 days by RT-qPCR analysis; format: functional, organism-based; conditions: dose 10-30 mg/kg, time 15-10110 min
[30] = test system: Mus musculus; test: Lipid lowering activity in PCN-induced hyperlipidemic male C57BL/6J mouse model assessed as decrease in lipid accumulation in liver at 30 mg/kg, IG preadministered with compound for 15 to 30 mins followed by PCN administration and measured after 7 days by H&E staining based analysis; format: functional, organism-based; conditions: time 15-10110 min

SMILES: O=C(O)CC(O)(CCc1ccc(-c2ccccc2)cc1)C(=O)O (stereo not given)
- Activity [1]: Dose-Dependent Effect
- Ratio [2]: 2
- inhibition [3]: Active
- Activity [4]: inactive
- Activity [5]: Dose-Dependent Effect
- Activity [6]: Dose-Dependent Effect
- Activity [7]: Active
- Activity [8]: Active
- Activity [9]: Dose-Dependent Effect
- Activity [10]: Active
- Activity [11]: Active
- Activity [12]: Active
- Activity [13]: Dose-Dependent Effect
- Activity [14]: Dose-Dependent Effect
- Activity [15]: Active
- Activity [16]: Active
- Activity [17]: Active
- Activity [18]: Active
- Activity [19]: Active
- inhibition [20]: Active
- Activity [21]: Dose-Dependent Effect
- Activity [22]: Dose-Dependent Effect
- Activity [23]: Active
- Activity [24]: Active
- Activity [25]: Active
- Activity [26]: Active
- Activity [27]: Active
- Activity [28]: Dose-Dependent Effect
- Activity [29]: inactive
- Activity [30]: Active

Source: ChEMBL document CHEMBL5543131, “Discovery of Highly Potent Solute Carrier 13 Member 5 (SLC13A5) Inhibitors for the Treatment of Hyperlipidemia” (J Med Chem, 2024)
